Tests used:
eDHFR-Luc [1] = test: Degradation of luciferase in HEK293T-DL cells, luminescence; format: cell-based, Escherichia coli; conditions: 12 and 24 h, varying doses
TNFα = test: Cytokine release assay, TNFα ELISA of killing assay supernatant; format: cell-based, human
Method: (§1) The concentration of TNF-α and IFN-g in the supernatants following killing assay was determined by ELISA.

[2] = system: FAP CAR-eDHFR direct fusion (DF); test: Dose response of surface CAR expression in primary human FAP-eDHFR DF CAR T cells, flow cytometry; format: cell-based; conditions: for degradation / downregulation of CAR molecules from the surface of CAR T cells: primary human FAP-eDHFR CAR T cells
Method: Generated CAR T cells were pelleted, resuspended in 2% BSA in PBS (Invitrogen), and incubated with Alexa Fluor® 647 AffiniPure F(ab′2) fragment goat anti-mouse IgG (Jackson ImmunoResearch Laboratories) for 30 minutes at room temperature. Stained cells were washed 3 times with PBS, and were analyzed on a flow cytometer (LSR II, BD Biosciences) for CAR and/or BFP expression. All flow data were analyzed using FlowJo software (FlowJo).
Following incubation, the cells were washed and stained with Alexa Fluor® 647 AffiniPure F(ab′2) fragment goat anti-mouse IgG (Jackson ImmunoResearch Laboratories) as described under “Flow Cytometry”, and their surface expression was analyzed on a flow cytometer (LSR II, BD Biosciences).
(§2) Data plotted as raw CAR stain fluorescence is shown in the left panel and percent of maximum CAR expression is shown in the right panel.
Values are reported as percent of maximum CAR expression (i.e. relative to CAR T cells that were treated with vehicle control). Each color represents a different donor (n=3).

[3] = system: FAP CAR-eDHFR fusion protein; test: CAR downregulation in Jurkat cells expressing FAP CAR-eDHFR fusion protein, flow cytometry; format: cell-based, Escherichia coli; conditions: serial time points
From the text: as §2

eDHFR-YFP [4] = test: Washout experiment, reversal of YFP degradation in Jurkat eDHFR-YFP+ cells, flow cytometry; format: cell-based, Escherichia coli; conditions: 100 nM, washout after 24 h
Method: Jurkat^eDHFR-YFP+ cells were seeded in a clear (Falcon) 12-well plate (3×10^5 cells/well) in complete media and incubated overnight. The following day, all wells were dosed with 100 nM of 7c, and cells were sampled at 0, 4, 8, 12, and 24 h following incubation (1 well was sampled per time point). Following 24 h incubation, remaining wells of cells were collected and centrifuged (Thermo Scientific Sorvall Legend X1R) at 1200 rpm for 5 minutes. Cells were washed 3 times with PBS and seeded on a new clear (Falcon) 12-well plate in fresh complete media. The cells were sampled at 3, 6, 24, 48, and 72 h following the drug washout. All cells were fixed in 4% PFA following sampling, and all samples from […] were analyzed together on a flow cytometer (BD).

eDHFR-YFP [5] = test: Time and dose-dependent degradation of YFP in Jurkat-DYL / Jurkat eDHFR-YFP+ cells, flow cytometry; format: cell-based, Escherichia coli
Method: Likewise, Jurkat eDHFR-YFP (Jurkat^eDHFR-YFP+) cells are seeded in clear (Falcon) 12-well plates (3×10^5 cells/well) in complete media. […]

IFNγ = test: Cytokine release assay, IFNγ ELISA of killing assay supernatant; format: cell-based, human; conditions: for T cell IFNγ release / secretion: supernatant of killing assay, 100 nM compound
Method: as §1

eDHFR-Luc [6] = test: Degradation of luciferase in Jurkat-DL cells, luminescence; format: cell-based, Escherichia coli; conditions: 4, 8 and 18 h, varying doses
[7] = system: FAP CAR-eDHFR direct fusion (DF); test: Inhibitor test in primary human FAP-eDHFR DF CAR T cells, flow cytometry; format: cell-based; conditions: primary human FAP-eDHFR DF CAR T cells
Method: Following pre-incubation, either 100 nM 7c or vehicle control DMSO (Sigma) was added to the wells, and cells were incubated with the drug for another 4 hours. Following incubation, the cells were washed and their surface CAR expression was assessed on a flow cytometer (BD Biosciences).
Following pre-incubation, the cells were incubated with 100 nM 7c for 4 hours and their CAR expression was assessed on a flow cytometer.

eDHFR-Lck fusion protein = test: Dose response in HEK293T eDHFR-Lck cells, Western blot; format: cell-based, Escherichia coli; conditions: 24 h
[8] = different concentrations, 10:1 E:T

COc1cc(Cc2cnc(N)nc2N)cc(OC)c1OCCCC(=O)NCCOCCOCCNc1cccc2c1C(=O)N(C1CCC(=O)NC1=O)C2=O (stereo not shown) [Compound 7c, 4-(4-((2,4-diaminopyrimidin-5-yl)methyl)-2,6-dimethoxyphenoxy)-N-(2-(2-(2-((2-(2,6-dioxopiperidin-3-yl)-1,3-dioxoisoindolin-4-yl)amino)ethoxy)ethoxy)ethyl)butanamide]
degradation of luciferase (eDHFR-Luc [1]): degraded | TNFα secretion across concentrations (TNFα; [8]): inhibition of CAR T cell signaling | T cell TNF-α release (TNFα; supernatant of killing assay, 100 nM compound): inhibits | CAR expression remaining, percent of maximum CAR expression ([2]; as early as 4 hours post-incubation, relative to vehicle control): 20 % of maximum CAR expression | degradation / downregulation of CAR molecules from the surface of CAR T cells [2]: leads to degradation of CAR molecules from the surface of CAR T cells | degradation / downregulation of CAR molecules from the surface of CAR T cells ([2]; listed as TMP-POM 7c): effectively downregulates CAR in a dose-dependent and reversible manner | degradation of CAR molecules from the surface of Jurkat cells [3]: leads to degradation of CAR molecules from the surface of Jurkat cells | time to full return of YFP expression to baseline following drug washout (eDHFR-YFP [4]): approximately 72 h | YFP remaining, % of maximum (no drug control) (eDHFR-YFP [5]; Jurkat eDHFR-YFP+, as early as 4 h): 20 % of maximum | degradation of YFP (eDHFR fusion protein) (eDHFR-YFP [5]; Jurkat-DYL, 4, 8 and 18 h incubation, varying doses): degrade eDHFR fusion proteins to low/no functional expression | IFNγ secretion across concentrations (IFNγ; [8]): inhibition of CAR T cell signaling | T cell IFNγ release / secretion (IFNγ): inhibits | T cell IFNγ release / secretion (IFNγ; listed as TMP-POM 7c): inhibition of CAR T cell signaling | degradation of luciferase (eDHFR-Luc [6]): degraded | mechanism of CAR downregulation [7]: proteosome-mediated degradation process | concentration of optimal degradation of eDHFR-Lck fusion protein (eDHFR-Lck fusion protein): 97 nM
